The values below come from publication PMC9645344, “Serotonin-releasing agents with reduced off-target effects” (Molecular Psychiatry, 2022).

One test has as its target T1, human DAT (Homo sapiens, UniProt Q01959).
T1 construct: expressed in transfected cells
The test can be described thus: DAT uptake inhibition assay in HEK293 cells ([3H]MPP+). The note with it: for DAT/SERT ratio: (1/DAT IC50)/(1/SERT IC50), higher values indicate higher DAT-selectivity. The test is classed as cell-based. Here is the method:
Human embryonic kidney 293 (HEK293) cells stably expressing the human isoforms of either DAT or SERT were maintained in Dulbecco’s Modified Eagle Medium (DMEM), supplemented with 10% fetal calf serum at a subconfluent state in humidified atmosphere (5% CO2, 37 °C).
Uptake inhibition assays were performed as described earlier. Briefly, HEK293 cells stably expressing human SERT or DAT were seeded onto poly- D-lysine (PDL) coated 96-well plates (40,000 cells well^−1) the day before an experiment. Prior to the uptake inhibition assay, DMEM was replaced with Krebs-HEPES buffer (KHB, 25 mM HEPES, 120 mM NaCl, 5 mM KCl, 1.2 mM CaCl2, 1.2 mM MgSO4, and 5 mM D-glucose, pH 7.3) and the cells were preincubated with test drugs for 5 min at room temperature. Uptake assays were initiated by adding 20 nM [^3H]MPP^+ to DAT cells or 100 nM [^3H]5-HT to SERT cells. After 180 s (DAT) or 60 s (SERT), the tritiated substrate was removed by aspiration. Cells were washed once with ice-cold KHB, then lysed in 1% sodium dodecyl sulfate (SDS) and subjected to liquid scintillation counting to quantify tritium accumulated in each sample. Non-specific uptake was determined in the presence of mazindol (1 µM) for DAT or paroxetine (1 µM) for SERT and subtracted throughout.

The next test deals with T2, human SERT (Homo sapiens, UniProt P31645).
T2 construct: expressed in transfected cells
Briefly: [3H]5-HT release assay in HEK293 cells (superfusion). The class given is cell-based. Conditions: 10 µM, SERT-expressing HEK293 cells. Here is the method:
HEK293 cells stably expressing SERT were seeded onto PDL-coated glass coverslips (5 mm diameter) that were placed into 96-well plates at a density of 40,000 cells per well the day before the experiment. Cells were preloaded with [^3H]5-HT (0.4 µM, 20 min at 37 °C). Subsequently, the cells were transferred into small chambers with a total volume of 200 µl and superfused with KHB at a flow rate of 0.7 ml per min for 40 min to establish a stable baseline before the collection of 2-min fractions was initiated. For each experiment, three basal fractions were collected before the cells were exposed to various concentrations (given in the figure legends) of the test drugs for five fractions. Subsequently, the cells were superfused with 1% SDS for three final fractions that served to determine the total amount of radioactivity present within the cells at the end of each experimental run. The amount of tritium within each fraction was determined by liquid scintillation counting, and release was expressed as percentage of radioactivity released in relation to the total radioactivity present at the beginning of that fraction. Observations from superfusion experiments were excluded in case of premature exposure to SDS.

For test [1], the system named is extracellular DA in the NAc. The test can be described thus: Fiber photometry with GRABDA sensor in the NAc. The test is classed as in vivo, mice. On the procedure:
All in vivo experiments were performed in adult mice (>6 weeks old). For the photometry and microdialysis experiments, which were carried out in Florida, male C57BL/6J mice from The Jackson Laboratory (Bar Harbor, ME, USA) were group-housed in polycarbonate cages (GM500, Tecniplast, Buguggiate, Italy) with lights on from 7 a.m. to 7 p.m. Food and water were provided ad libitum. Photometry and microdialysis experiments were performed in accordance with a protocol approved by the Institutional Animal Care and Use Committee at Florida Atlantic University. […]
Mice were anesthetized with isoflurane (5% induction, 2% maintenance) and placed into a stereotaxic frame (Kopf Instruments, Tujunga, CA, USA) oriented in the flat skull position. […] Fascia was removed, coordinates for the NAc were determined relative to bregma: anterior/posterior = 1.54 mm; medial/lateral = 0.7 mm; dorsal/ventral = −4.1 mm. […]
To monitor light emitted from the G-protein coupled receptor-activation-based 5-HT (GRAB5-HT) and DA (GRABDA) sensors, fiber photometry was performed as described. […] Emitted, band-pass filtered light (500–550 nm, FMC6, Doric Lenses, Quebec,QC, Canada) was detected with a photodetector (Newport Femtowatt silicone PIN; New Focus, San Jose, CA, USA). Data were recorded using a RZ5P lock-in amplifier (Tucker-Davis Technologies, Alachua, FL, USA) controlled with Synapse software. […]

T1 sequence (Q01959 whole entry): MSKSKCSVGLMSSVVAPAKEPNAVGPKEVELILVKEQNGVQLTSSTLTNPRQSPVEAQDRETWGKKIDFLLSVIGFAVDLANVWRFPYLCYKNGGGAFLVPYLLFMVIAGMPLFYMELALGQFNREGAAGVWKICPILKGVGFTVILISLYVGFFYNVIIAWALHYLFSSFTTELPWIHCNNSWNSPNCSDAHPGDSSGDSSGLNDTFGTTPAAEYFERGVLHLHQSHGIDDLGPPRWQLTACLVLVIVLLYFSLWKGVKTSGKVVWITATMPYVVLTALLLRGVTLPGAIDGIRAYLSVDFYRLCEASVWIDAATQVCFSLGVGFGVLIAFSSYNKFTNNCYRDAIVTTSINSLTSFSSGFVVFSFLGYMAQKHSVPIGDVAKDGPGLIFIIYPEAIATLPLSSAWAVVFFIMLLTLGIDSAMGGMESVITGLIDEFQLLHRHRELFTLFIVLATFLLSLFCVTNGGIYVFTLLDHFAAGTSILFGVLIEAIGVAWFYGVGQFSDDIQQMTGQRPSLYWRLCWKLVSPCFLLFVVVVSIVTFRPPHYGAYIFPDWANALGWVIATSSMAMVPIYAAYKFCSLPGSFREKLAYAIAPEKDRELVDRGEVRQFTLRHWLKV
T2 sequence (P31645 whole entry): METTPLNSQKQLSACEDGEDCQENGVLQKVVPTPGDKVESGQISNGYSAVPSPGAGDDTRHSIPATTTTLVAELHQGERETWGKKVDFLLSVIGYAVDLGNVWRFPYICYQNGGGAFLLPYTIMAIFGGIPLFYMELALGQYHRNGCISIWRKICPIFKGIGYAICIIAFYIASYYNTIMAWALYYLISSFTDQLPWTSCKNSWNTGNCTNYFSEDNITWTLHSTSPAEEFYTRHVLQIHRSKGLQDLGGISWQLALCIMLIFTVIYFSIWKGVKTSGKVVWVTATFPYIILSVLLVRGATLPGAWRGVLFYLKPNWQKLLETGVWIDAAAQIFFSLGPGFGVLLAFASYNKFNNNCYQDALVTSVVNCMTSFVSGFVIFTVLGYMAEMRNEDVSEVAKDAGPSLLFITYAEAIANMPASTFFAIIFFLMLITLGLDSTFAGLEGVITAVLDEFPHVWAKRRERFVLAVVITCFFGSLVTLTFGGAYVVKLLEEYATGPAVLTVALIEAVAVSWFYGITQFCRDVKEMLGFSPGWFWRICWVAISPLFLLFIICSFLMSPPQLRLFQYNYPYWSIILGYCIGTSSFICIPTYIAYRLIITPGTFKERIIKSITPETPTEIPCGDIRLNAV

For orientation: IC50 means the concentration needed to halve the response being measured. The low end stands for greater potency in that assay, the high end for weaker potency in that assay. For the compound `CN[C@@H](C)C(=O)c1ccc(C(F)(F)F)cc1` [S-4-TFMMC, 4-trifluoromethyl-N-methylcathinone], at human DAT, the IC50 came out at 190 µM and the DAT/SERT ratio worked out at 0.05. Also, the “effect on release of preloaded [3H]5-HT” value at human SERT is “robustly increased”. Further, in test [1] (10 mg kg-1 intraperitoneal), the “basal DA levels in the NAc (GRABDA fluorescence)” value is on record as “neither S-4-MC, nor S-4-TFMMC significantly elevated the basal DA levels”.

Regarding `Cc1ccc(C(=O)[C@H](C)N)cc1` [S-4-MC, 4-methylcathinone], at human DAT, inhibition was half-maximal at 6.65 µM (IC50) and the DAT/SERT ratio is 1.9. For the same compound, the “effect on release of preloaded [3H]5-HT” value at human SERT was “robustly increased”. Further, the “basal DA levels in the NAc (GRABDA fluorescence)” value in test [1] (5 mg kg-1 intraperitoneal) is recorded as “neither S-4-MC, nor S-4-TFMMC significantly elevated the basal DA levels”.
